Where “and” joins values, the source holds several entries; their conditions need not be identical. Equal entries are not always repeated.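 1) Cells in 96-well plates. 2) Compound, 48 h, 5 concentrations. 3) Linear interpolation between surrounding doses. 4) Unreached endpoint = highest concentration. At the GI50, growth is halved. TGI denotes the concentration required for complete inhibition of growth.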
Assays:
Experiment in all cases: growth of human tumour cells (NCI), 48 h
786-0 renal = test system: 786-0 renal
UO-31 renal = test system: UO-31 renal
SNB-75 CNS = test system: SNB-75 CNS
MOLT-4 leukemia = test system: MOLT-4 leukemia
HL-60(TB) leukemia = test system: HL-60(TB) leukemia
SN12C renal = test system: SN12C renal
NCI-H522 lung = test system: NCI-H522 lung
PC-3 prostate = test system: PC-3 prostate
K-562 leukemia = test system: K-562 leukemia
RXF 393 renal = test system: RXF 393 renal

| SMILES | GI50 (786-0 renal) | TGI (786-0 renal) | GI50 (UO-31 renal) | TGI (UO-31 renal) | GI50 (SNB-75 CNS) | TGI (SNB-75 CNS) | GI50 (MOLT-4 leukemia) | TGI (MOLT-4 leukemia) | GI50 (HL-60(TB) leukemia) | TGI (HL-60(TB) leukemia) | GI50 (SN12C renal) | TGI (SN12C renal) | GI50 (NCI-H522 lung) | TGI (NCI-H522 lung) | GI50 (PC-3 prostate) | TGI (PC-3 prostate) | GI50 (K-562 leukemia) | TGI (K-562 leukemia) | GI50 (RXF 393 renal) | TGI (RXF 393 renal) |
| --- | --- | --- | --- | --- | --- | --- | --- | --- | --- | --- | --- | --- | --- | --- | --- | --- | --- | --- | --- | --- |
| CN1CCN(c2cc(F)c(NC3=C(Cl)C(=O)c4ncccc4C3=O)c(F)c2)CC1 | 1.84 µM | 3.8 µM | 1.39 µM | 2.72 µM | 1.37 µM | 5.61 µM | 2.4 µM | 8.83 µM | 1.65 µM | 5.46 µM | 1.7 µM | 3.29 µM | 0.559 µM | 2.26 µM | 1.6 µM | 3.74 µM | 0.651 µM | > 100 µM | 1.64 µM | 3.1 µM |
| COc1cc2c(cc1OCCCCCOc1ccc(-c3nc4ccccc4s3)cc1)N=C[C@@H]1CCCN1C2=O | 1.2 µM | 3.63 µM | 2.5 µM | 13.4 µM | 6.57 µM | 59.8 µM | 3.5 µM | 20 µM | 1.35 µM | 8.72 µM | 2.95 µM | 18.9 µM | 1.72 µM | 13.7 µM | 1.14 µM | 7.04 µM | 0.914 µM | 12.2 µM | 1.46 µM | 5.43 µM |
| C[C@]12CC[C@H]3[C@@H](CCC4=CC(=O)CC[C@@]43C)[C@]1(O)CC[C@]2(O)C(=O)CO |  | > 100 µM |  | > 100 µM |  | > 100 µM |  | > 100 µM |  | > 100 µM |  | > 100 µM |  | > 100 µM |  | > 100 µM |  | > 100 µM |  | > 100 µM |
| CC(C)OC(=O)Nc1c([N+](=O)[O-])cc(C(F)(F)F)cc1[N+](=O)[O-] |  | > 100 µM |  | > 100 µM |  | 40 µM |  | > 46.4 µM |  | > 100 µM |  | > 100 µM |  | > 100 µM |  | > 100 µM |  | > 46.4 µM |  | 62.3 µM |
| CCOc1ccc2nc3cc(N)ccc3c(N)c2c1 | 2.12 µM and 2.37 µM | 10.8 µM and 13.1 µM | 3.11 µM and 11.6 µM | 27.7 µM and 62.8 µM | 2.86 µM and 14.1 µM | 8.78 µM and 28.4 µM | 2.99 µM and 3.26 µM | 12.2 µM and 12.4 µM | 19.8 µM and 20.2 µM | 42.2 µM and 43.7 µM | 0.661 µM and 0.298 µM | 6.45 µM and 2.1 µM | 1.8 µM and 1.69 µM | 4.54 µM and 5.1 µM | 3.85 µM and 2.99 µM | 16.1 µM and 12.7 µM | 6.03 µM and 6.26 µM | 20.2 µM and 25.4 µM | 4.97 µM and 2.38 µM | 20.3 µM and 14.6 µM |
| COc1cccc2c1C(=O)c1c(O)c3c(c(O)c1C2=O)C[C@@](O)(/C(C)=N/NC(=O)c1cccc([N+](=O)[O-])c1)C[C@@H]3OC1CC(N)C(O)C(C)O1 (some centres undefined) | 0.306 µM | 5.68 µM | 0.882 µM | > 22 µM | 0.22 µM | 1.5 µM | 0.0524 µM | 4.9 µM | 0.146 µM | 0.923 µM | 0.233 µM | 16.9 µM | 0.494 µM | 5.96 µM | 0.616 µM | 8.74 µM | 0.356 µM | 5.16 µM | 0.494 µM | 2.21 µM |
| COc1ccc2c(c1[N+](=O)[O-])CC[C@@H]1[C@@H]2CC[C@]2(C)C(=O)CC[C@@H]12 | > 25 µM | > 562 µM | > 824 µM | > 1000 µM | 142 µM | > 25 µM and 345 µM | > 1000 µM | > 1000 µM | > 1000 µM |  | 983 µM | > 1000 µM | 590 µM | > 957 µM | > 684 µM |  | > 1000 µM |  | 432 µM | > 927 µM |
| Clc1cccc(-c2cc(-c3ccc4c(c3)OCCO4)[nH]n2)c1 | 23.1 µM | 64.9 µM | 9.27 µM | 43.9 µM | 2.24 µM | 34.8 µM | 3.15 µM | 74.6 µM | 4.65 µM | 53.6 µM | 5.38 µM | 40.1 µM | 1.48 µM | 37.2 µM | 4.87 µM | 45.8 µM | 1.04 µM | 250 µM | 7.34 µM | 46.1 µM |
| O=c1oc2ccccc2cc1P(=O)(O)O |  | > 100 µM |  |  |  | > 100 µM |  | > 100 µM |  | > 100 µM |  | > 100 µM |  | > 100 µM |  | > 100 µM |  | > 100 µM |  | > 100 µM |
| CCCCCOC(=O)c1c(C)[nH]c(/C=C2\N=C(c3ccc[nH]3)C=C2OC)c1C | 0.0468 µM | 0.397 µM | 0.021 µM | 0.0689 µM | 0.0429 µM | 0.619 µM | 0.0265 µM | 1.43 µM | 0.0263 µM | 0.281 µM | 0.0482 µM | 1.73 µM | 0.0392 µM | 1.27 µM | 0.0212 µM | 3.27 µM | 0.0421 µM | 1.25 µM | 0.0664 µM | 0.9 µM |
| C/C(=C1\C(=O)Nc2ccccc21)c1cccc(/C(C)=C2/C(=O)Nc3ccccc32)n1 | 17.3 µM | 89.6 µM | 24.5 µM | > 100 µM | 40.2 µM | > 100 µM | 6.95 µM | > 100 µM | 16 µM | > 100 µM | 15.6 µM | 54.7 µM | 9.59 µM | 99.5 µM | 24.4 µM | > 100 µM | 4.35 µM | > 100 µM | 12.3 µM | 58.7 µM |
| COc1ccc2c(c1)c(-c1ccc(-c3cn(C)c4ccc(OC)cc34)s1)cn2C | > 100 µM | > 100 µM | > 100 µM | > 100 µM | 49.4 µM | > 100 µM | > 100 µM | > 100 µM | > 100 µM | > 100 µM | > 100 µM | > 100 µM | > 100 µM | > 100 µM | > 100 µM | > 100 µM | > 100 µM | > 100 µM | > 100 µM | > 100 µM |
| CC(NC(=O)c1ccc(Cl)c(Cl)c1)c1ccc(-c2ccccc2)cc1 (centres undefined) |  | 47.5 µM |  | 29.4 µM |  | 39.3 µM |  |  |  | > 100 µM |  | > 100 µM |  | > 100 µM |  | > 100 µM |  | > 100 µM |  | 28 µM |
| OC(c1ccccc1)c1c(-c2ccccc2)[nH]c(-c2ccccc2)c1C(O)c1ccccc1 (centres undefined) |  | 16.1 µM |  | 5.78 µM |  |  |  | 7 µM |  | 4.24 µM |  | 5.68 µM |  | 11.5 µM |  | 21.1 µM |  | 4.64 µM |  | 10.3 µM |

— PubChem BioAssay (NCI)
